Entries after “also recorded” stand apart in the source; their conditions may differ.
Tested on: model rats for renal insufficiency
Experiment: Suppressive action to the progression of renal failure in adenine-induced renal insufficiency model rats
Assay type: in vivo, Wistar-strain male rats
Excerpt: (1) Suppressive Action of the Optical Isomer to the Progression of Renal Failure
Adenine was orally administered to Wistar-strain male rats of eight weeks age to prepare a renal insufficiency model. […] Further, a value of creatinine clearance (mL/kg/hr) decreased from 315.3±13.8 to 25.7±4.4 whereupon renal functions lowered to about one-tenth.
From the 7th to the 17th days from administration of adenine, each of (S)-(−)- 5-hydroxy-1-methylhydantoin, (R)-(+)-5-hydroxy-1-methylhydantoin and the racemate at the dose of 100 mg/kg or 200 mg/kg was orally administered to the rat in which renal insufficiency was induced by adenine. The creatinine levels in blood before and after the administration of the test drug were compared whereupon a suppressive action of the test drug to an increase of creatinine (ΔCr) accompanied by the progress of renal insufficiency was checked and the results are shown in FIG. 1 and FIG. 2. Five rats were used as a group for the test. The average value ± standard error was calculated and the significant difference between the test drug group and the diseased control group was statistically analyzed by means of Dunnett's test or Student-t test (*; p<0.05).

## CN1C(=O)NC(=O)[C@H]1O [(R)-(+)-5-hydroxy-1-methylhydantoin]
As compared with the S-form and the racemate, oral, listed as R-form
  suppressive action to the progression of renal failure: excellent suppressive action; also recorded: particularly an excellent suppressive effect
Oral 100 mg/kg or 200 mg/kg, 7th to 17th day of adenine, vs diseased control, p<0.05, FIG. 1 and FIG. 3
  suppressive action to an increase of creatinine in blood (ΔCr): significantly suppressed
